Measurements as given in patent publication US20250136606A1, “MODULATORS OF TRPML, THEIR COMPOSITIONS AND METHODS OF USE” (Caraway Therapeutics, Inc., priority 2021, published 2025).
Where two headings read alike, the source gives them in different places.

How the values were obtained:
Format in all cases: cell-based
[1] = biological target: T1, TRPML3 (Homo sapiens, UniProt Q8TDD5); test: Fluorescent TRPML3 assay (performed as for TRPML1, substituting the TRPML3 subtype)
T1 construct: expressed in transfected cells
T1 sequence (Q8TDD5 1-553): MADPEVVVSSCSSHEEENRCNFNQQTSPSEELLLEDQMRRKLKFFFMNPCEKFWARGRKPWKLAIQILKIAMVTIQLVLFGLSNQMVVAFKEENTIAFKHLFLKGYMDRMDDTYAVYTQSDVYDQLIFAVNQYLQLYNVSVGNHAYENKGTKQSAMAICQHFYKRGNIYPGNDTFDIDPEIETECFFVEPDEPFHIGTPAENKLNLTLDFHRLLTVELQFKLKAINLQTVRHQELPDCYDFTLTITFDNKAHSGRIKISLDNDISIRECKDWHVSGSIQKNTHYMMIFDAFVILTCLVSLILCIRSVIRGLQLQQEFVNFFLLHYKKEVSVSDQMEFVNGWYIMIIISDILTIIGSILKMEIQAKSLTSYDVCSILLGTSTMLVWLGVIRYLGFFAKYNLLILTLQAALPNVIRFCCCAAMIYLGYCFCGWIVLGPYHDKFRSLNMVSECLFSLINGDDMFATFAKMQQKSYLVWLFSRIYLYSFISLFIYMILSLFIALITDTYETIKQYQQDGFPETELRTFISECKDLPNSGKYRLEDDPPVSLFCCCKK
Method in brief: (§1)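 Doxycycline-induced (0.5 ug/mL) HEK-293 Trex cells stably expressing surface-directed mutant channel were loaded with 1 micromolar Fluo4-AM, resuspended in Ringer's with 10 mM calcium and added to compound plates. Fluorescence (ex 480, em 540 nm) gave percent activity versus on-plate controls; EC50 by non-linear regression.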

[2] = biological target: TRPML1 (Homo sapiens, UniProt Q9GZU1); test: Fluorescent TRPML1 assay (Fluo4-AM calcium fluorescence in doxycycline-induced HEK-293 Trex cells)
Method in brief: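 First, expression of surface-targeted mutant human TRPML1 is induced in HEK-293 Trex cells with 0.5 ug/mL doxycycline the day before. Next, cells take up 1 micromolar Fluo4-AM in Ringer's with 0.1% Pluronic. Finally, they are added to compounds (6 nanomolar–20 micromolar final) in 10 mM calcium Ringer's and fluorescence is read.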

[3] = biological target: T2, TRPML2 (Homo sapiens, UniProt Q8IZK6); test: Fluorescent TRPML2 assay (performed as for TRPML1, substituting the TRPML2 subtype)
T2 construct: expressed in transfected cells
T2 sequence (Q8IZK6 1-566): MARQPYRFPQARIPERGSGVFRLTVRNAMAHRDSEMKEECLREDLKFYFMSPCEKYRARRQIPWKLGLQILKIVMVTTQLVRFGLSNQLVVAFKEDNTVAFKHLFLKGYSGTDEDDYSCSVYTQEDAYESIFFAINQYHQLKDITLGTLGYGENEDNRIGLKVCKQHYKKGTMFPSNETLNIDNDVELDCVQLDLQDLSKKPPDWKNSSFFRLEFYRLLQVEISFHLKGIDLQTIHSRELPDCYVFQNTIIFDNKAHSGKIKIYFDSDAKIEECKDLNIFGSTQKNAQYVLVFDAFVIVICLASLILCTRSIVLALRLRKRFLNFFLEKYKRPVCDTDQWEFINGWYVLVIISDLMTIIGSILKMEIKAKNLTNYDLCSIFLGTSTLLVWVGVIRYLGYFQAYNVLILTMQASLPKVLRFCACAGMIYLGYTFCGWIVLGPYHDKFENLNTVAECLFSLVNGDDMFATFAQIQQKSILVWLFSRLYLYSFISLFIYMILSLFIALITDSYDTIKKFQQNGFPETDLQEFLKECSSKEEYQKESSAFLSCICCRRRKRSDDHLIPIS
Method in brief: as §1

Sequence of TRPML1 (Q9GZU1 whole entry L15A/L16A/L577A/L578A, form open): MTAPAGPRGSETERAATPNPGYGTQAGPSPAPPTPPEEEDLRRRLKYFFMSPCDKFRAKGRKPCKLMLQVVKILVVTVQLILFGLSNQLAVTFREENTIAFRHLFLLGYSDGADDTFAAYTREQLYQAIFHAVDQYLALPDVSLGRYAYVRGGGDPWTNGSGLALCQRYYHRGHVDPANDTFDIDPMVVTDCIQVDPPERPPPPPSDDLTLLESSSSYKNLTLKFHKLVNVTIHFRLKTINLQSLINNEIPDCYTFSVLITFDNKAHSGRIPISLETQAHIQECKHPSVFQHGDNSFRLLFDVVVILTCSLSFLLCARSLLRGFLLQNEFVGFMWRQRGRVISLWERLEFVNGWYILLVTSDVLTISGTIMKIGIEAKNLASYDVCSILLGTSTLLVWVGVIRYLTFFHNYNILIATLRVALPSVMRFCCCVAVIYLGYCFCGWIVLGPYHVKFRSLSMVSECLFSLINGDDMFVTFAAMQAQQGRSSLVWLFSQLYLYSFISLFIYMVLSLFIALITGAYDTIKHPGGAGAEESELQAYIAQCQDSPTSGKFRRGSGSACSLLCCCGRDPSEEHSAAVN

SMILES	EC50 ([1]; fluorescent calcium assay) [nM]	EC50 ([2]; fluorescent calcium assay) [nM]	EC50 ([3]; fluorescent calcium assay) [nM]	EC50 [1] [nM]	EC50 [2] [nM]	EC50 [3] [nM]
C[C@H]1CN(C(=O)OC(C)(C)C(F)(F)F)CCN1c1ncnc2c1c(-c1ccccn1)cn2-c1cccc(Cl)c1 [Compound 121, 1,1,1-trifluoro-2-methylpropan-2-yl (S)-4-(7-(3-chlorophenyl)-5-(pyridin-2-yl)-7H-pyrrolo[2,3-d]pyrimidin-4-yl)-3-methylpiperazine-1-carboxylate]	< 100	< 100	100 to 500	–	–	–
Cc1cn(-c2cc(F)cc(F)c2)c2ncnc(N3C[C@@H](C)N(C(=O)OC(C)(C)C)C[C@@H]3C)c12 [Compound 670, tert-butyl (2R,5S)-4-(7-(3,5-difluorophenyl)-5-methyl-7H-pyrrolo[2,3-d]pyrimidin-4-yl)-2,5-dimethylpiperazine-1-carboxylate]	–	–	–	< 100	100 to 500	500 to 2000
C#Cc1ccnc(-n2cc(C3CC3)c3c(N4C[C@@H](C)N(C(=O)OC(C)(C)C)C[C@@H]4C)ncnc32)c1 [Compound 715, tert-butyl (2R,5S)-4-(5-cyclopropyl-7-(4-ethynylpyridin-2-yl)-7H-pyrrolo[2,3-d]pyrimidin-4-yl)-2,5-dimethylpiperazine-1-carboxylate]	–	–	–	< 100	< 100	< 100
CCc1cn(-c2cc(F)ccn2)c2ncnc(N3C[C@@H](C)N(C(=O)OC(C)(C)C)C[C@@H]3C)c12 [Compound 697, tert-butyl (2R,5S)-4-(5-ethyl-7-(4-fluoropyridin-2-yl)-7H-pyrrolo[2,3-d]pyrimidin-4-yl)-2,5-dimethylpiperazine-1-carboxylate]	–	–	–	< 100	< 100	< 100
Cc1cn(-c2cncc(F)c2)c2ncnc(N3C[C@@H](C)N(C(=O)OC(C)(C)C)C[C@@H]3C)c12 [Compound 672, tert-butyl (2R,5S)-4-(7-(5-fluoropyridin-3-yl)-5-methyl-7H-pyrrolo[2,3-d]pyrimidin-4-yl)-2,5-dimethylpiperazine-1-carboxylate]	–	–	–	100 to 500	100 to 500	500 to 2000
Cc1cn(-c2cc(F)ccn2)c2ccnc(N3C[C@@H](C)N(C(=O)OC(C)(C)C)C[C@@H]3C)c12 [Compound 701, tert-butyl (2R,5S)-4-(1-(4-fluoropyridin-2-yl)-3-methyl-1H-pyrrolo[3,2-c]pyridin-4-yl)-2,5-dimethylpiperazine-1-carboxylate]	–	–	–	100 to 500	< 100	> 2000
C[C@@H]1CN(c2cn(-c3cccc(C#N)c3)c3ncnc(N4CCN(C(=O)OC(C)(C)C)C[C@@H]4C)c23)CCO1 [Compound 363, tert-butyl (S)-4-(7-(3-cyanophenyl)-5-((R)-2-methylmorpholino)-7H-pyrrolo[2,3-d]pyrimidin-4-yl)-3-methylpiperazine-1-carboxylate]	< 100	100 to 500	500 to 2000	–	–	–
C[C@@H]1CN(c2ncnc3c2c(C2CC2)cn3-c2cc(F)cc(Cl)c2)[C@@H](C)CN1C(=O)OC(C)(C)C [Compound 236, tert-butyl (2R,5S)-4-(7-(3-chloro-5-fluorophenyl)-5-cyclopropyl-7H-pyrrolo[2,3-d]pyrimidin-4-yl)-2,5-dimethylpiperazine-1-carboxylate]	< 100	< 100	100 to 500	–	–	–
C[C@@H]1CN(c2ncnc3c2c(C(F)(F)F)cn3-c2cc(Cl)ccn2)[C@@H](C)CN1C(=O)OC(C)(C)C [Compound 506, tert-butyl (2R,5S)-4-(7-(4-chloropyridin-2-yl)-5-(trifluoromethyl)-7H-pyrrolo[2,3-d]pyrimidin-4-yl)-2,5-dimethylpiperazine-1-carboxylate]	–	–	–	< 100	< 100	500 to 2000
COC(=O)c1nccnc1-c1cn(-c2cccc(Cl)c2)c2ncnc(N3CCN(C(=O)OC(C)(C)C)C[C@@H]3C)c12 [Compound 275, methyl (S)-3-(4-(4-(tert-butoxycarbonyl)-2-methylpiperazin-1-yl)-7-(3-chlorophenyl)-7H-pyrrolo[2,3-d]pyrimidin-5-yl)pyrazine-2-carboxylate]	500 to 2000	> 2000	> 2000	–	–	–
C[C@@H]1CN(c2ncnc3c2c(C(F)F)cn3-c2cc(C#N)ccn2)[C@@H](C)CN1C(=O)OC1(C)CCC1 [Compound 605, 1-methylcyclobutyl (2R,5S)-4-(7-(4-cyanopyridin-2-yl)-5-(difluoromethyl)-7H-pyrrolo[2,3-d]pyrimidin-4-yl)-2,5-dimethylpiperazine-1-carboxylate]	–	–	–	< 100	< 100	100 to 500

The remaining lines, values ahead:

EC50 ([1]; fluorescent calcium assay) [nM]	EC50 ([2]; fluorescent calcium assay) [nM]	EC50 ([3]; fluorescent calcium assay) [nM]	EC50 [1] [nM]	EC50 [2] [nM]	EC50 [3] [nM]	SMILES
500 to 2000	500 to 2000	> 2000	–	–	–	CCOC(=O)N1CCN(c2ncnc3c2c(-c2ccccn2)cn3-c2ccc(F)c(Cl)c2)CC1 [Compound 152, ethyl 4-(7-(3-chloro-4-fluorophenyl)-5-(pyridin-2-yl)-7H-pyrrolo[2,3-d]pyrimidin-4-yl)piperazine-1-carboxylate]
–	–	–	< 100	< 100	100 to 500	C[C@@H]1CN(c2ncnc3c2c(N2CC4(COC4)C2)cn3-c2cc(C#N)ccn2)[C@@H](C)CN1C(=O)OC(C)(C)C [Compound 504, tert-butyl (2R,5S)-4-(7-(4-cyanopyridin-2-yl)-5-(2-oxa-6-azaspiro[3.3]heptan-6-yl)-7H-pyrrolo[2,3-d]pyrimidin-4-yl)-2,5-dimethylpiperazine-1-carboxylate]
< 100	< 100	100 to 500	–	–	–	C[C@H]1CN(C(=O)OC(C)(C)C)CCN1c1ncnc2c1c(-c1cccnc1)cn2-c1ccc(F)c(Cl)c1 [Compound 212, tert-butyl (S)-4-(7-(3-chloro-4-fluorophenyl)-5-(pyridin-3-yl)-7H-pyrrolo[2,3-d]pyrimidin-4-yl)-3-methylpiperazine-1-carboxylate]
< 100	< 100	100 to 500	–	–	–	CCN(CC)c1cn(-c2cc(C#N)ccn2)c2ncnc(N3CCN(C(=O)OC(C)(C)C(F)(F)F)C[C@@H]3C)c12 [Compound 422, 1,1,1-trifluoro-2-methylpropan-2-yl (S)-4-(7-(4-cyanopyridin-2-yl)-5-(diethylamino)-7H-pyrrolo[2,3-d]pyrimidin-4-yl)-3-methylpiperazine-1-carboxylate]
< 100	< 100	100 to 500	–	–	–	C[C@@H]1CN(c2ncnc3c2c(C2CC2)cn3-c2cc(F)c(F)c(F)c2)CCN1C(=O)OC(C)(C)C [Compound 204, tert-butyl (R)-4-(5-cyclopropyl-7-(3,4,5-trifluorophenyl)-7H-pyrrolo[2,3-d]pyrimidin-4-yl)-2-methylpiperazine-1-carboxylate]
< 100	< 100	< 100	–	–	–	C[C@H]1CN(C(=O)OC(C)(C)C)CCN1c1ncnc2c1c(C1CC1)cn2-c1ccc(Cl)cc1 [Compound 114, tert-butyl (S)-4-(7-(4-chlorophenyl)-5-cyclopropyl-7H-pyrrolo[2,3-d]pyrimidin-4-yl)-3-methylpiperazine-1-carboxylate]
–	–	–	100 to 500	100 to 500	100 to 500	C[C@@H]1CN(c2ncnc3c2c(C2CCC2)cn3-c2cccc(C(F)(F)F)c2)[C@@H](C)CN1C(=O)OC(C)(C)C [Compound 645, tert-butyl (2R,5S)-4-(5-cyclobutyl-7-(3-(trifluoromethyl)phenyl)-7H-pyrrolo[2,3-d]pyrimidin-4-yl)-2,5-dimethylpiperazine-1-carboxylate]
< 100	< 100	100 to 500	–	–	–	CC(C)(C)OC(=O)N1CCN(c2ncnc3c2c(-c2ccccc2F)cn3-c2cc(C#N)ccn2)CC1(C)C [Compound 391]
500 to 2000	100 to 500	> 2000	–	–	–	CCOC(=O)N1C[C@H](C)N(c2ncnc3c2c(-c2ccccc2F)cn3-c2cccnc2)C[C@H]1C [Compound 143, ethyl (2R,5S)-4-(5-(2-fluorophenyl)-7-(pyridin-3-yl)-7H-pyrrolo[2,3-d]pyrimidin-4-yl)-2,5-dimethylpiperazine-1-carboxylate]
